Experimental data: ChEMBL document CHEMBL5532738, “Chiral Me-2-arachidonoyl Glycerols: The First Potent Endocannabinoid Glyceride Templates with Stability to COX-2” (ACS Med Chem Lett, 2024)

Columns and labels:
Type in all cases: functional, cell-based
[1] = target: Cannabinoid receptor 2 (Mus musculus) (UniProt P47936); assay: Agonist activity at mouse CB2 receptor stably expressed in HEK293 cells assessed as inhibition of forskolin-stimulated cAMP accumulation incubated for 5 mins by Lance Ultra cAMP assay relative to control
Cannabinoid receptor 2 (Mus musculus), sequence (P47936 whole entry): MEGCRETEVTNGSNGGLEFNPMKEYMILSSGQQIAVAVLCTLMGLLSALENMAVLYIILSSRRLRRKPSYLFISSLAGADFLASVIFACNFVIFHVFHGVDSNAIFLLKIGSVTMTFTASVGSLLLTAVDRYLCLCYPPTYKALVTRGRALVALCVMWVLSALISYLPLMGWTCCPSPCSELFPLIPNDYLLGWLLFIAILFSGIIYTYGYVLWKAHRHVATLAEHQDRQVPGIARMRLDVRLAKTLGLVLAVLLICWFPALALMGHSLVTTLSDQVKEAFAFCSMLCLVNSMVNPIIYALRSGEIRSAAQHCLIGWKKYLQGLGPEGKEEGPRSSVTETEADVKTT

Cannabinoid receptor 2 = Cannabinoid receptor 2 (Mus musculus, UniProt P47936); assay: Agonist activity at mouse CB2 receptor stably expressed in HEK293 cells assessed as inhibition of forskolin-stimulated cAMP accumulation incubated for 5 mins by Lance Ultra cAMP assay
Cannabinoid receptor 2, sequence (P47936 whole entry): as above

Cannabinoid receptor 1 = Cannabinoid receptor 1 (Rattus norvegicus, UniProt P20272); assay: Agonist activity at rat CB1 receptor stably expressed in HEK293 cells assessed as inhibition of forskolin-stimulated cAMP accumulation incubated for 5 mins by Lance Ultra cAMP assay
Cannabinoid receptor 1, sequence (P20272 whole entry): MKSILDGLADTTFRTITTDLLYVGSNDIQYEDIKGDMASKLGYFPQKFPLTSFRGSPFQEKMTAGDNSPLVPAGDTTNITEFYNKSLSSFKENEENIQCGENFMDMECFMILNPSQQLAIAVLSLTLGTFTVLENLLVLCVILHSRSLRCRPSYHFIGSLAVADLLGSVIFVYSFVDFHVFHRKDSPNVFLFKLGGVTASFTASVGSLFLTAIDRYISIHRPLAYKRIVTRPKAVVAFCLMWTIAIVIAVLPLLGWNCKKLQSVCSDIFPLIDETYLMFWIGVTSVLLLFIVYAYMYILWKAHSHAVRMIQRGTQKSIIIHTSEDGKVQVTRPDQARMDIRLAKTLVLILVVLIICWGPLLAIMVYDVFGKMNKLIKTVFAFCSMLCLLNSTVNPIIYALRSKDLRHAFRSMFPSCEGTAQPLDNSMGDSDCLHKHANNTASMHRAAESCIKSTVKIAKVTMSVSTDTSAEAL

[2] = target: Cannabinoid receptor 1 (Rattus norvegicus) (UniProt P20272); assay: Agonist activity at rat CB1 receptor stably expressed in HEK293 cells assessed as inhibition of forskolin-stimulated cAMP accumulation incubated for 5 mins by Lance Ultra cAMP assay relative to control; conditions: filed as agonist
Cannabinoid receptor 1 (Rattus norvegicus), sequence (P20272 whole entry): as above

Row | Structure (SMILES) | Emax [1] | EC50 (Cannabinoid receptor 2) | EC50 (Cannabinoid receptor 1) | Emax [2] | Emax ([1]; filed as agonist)
1 | CCCCC/C=C\C/C=C\C/C=C\[C@H](C)/C=C\CCCC(=O)OC(CO)CO | 24.6% | 6 nM | 23.1 nM | 48.7% | –
2 | CCCCC/C=C\[C@H](C)/C=C\C/C=C\C/C=C\CCCC(=O)OC(CO)CO | – | 53 nM | 17 nM | 51.2% | 50.1%
3 | CCCCC/C=C\C/C=C\C/C=C\C/C=C\CCCC(=O)OC(CO)CO [2-ARACHIDONOYLGLYCEROL] | 35.2% | 18 nM | – | 47.7% | –
4 | CCCCC/C=C\C/C=C\C/C=C\[C@@H](C)/C=C\CCCC(=O)OC(CO)CO | < 1% | – | 34.6 nM | 74.8% | –
5 | CCCCCCC(C)(C)c1ccc([C@@H]2C[C@H](O)CC[C@H]2CCCO)c(O)c1 [CP-55940] | – | 7 nM | – | 67.1% | 54.4%
6 | CCCCC/C=C\[C@@H](C)/C=C\C/C=C\C/C=C\CCCC(=O)OC(CO)CO | – | 50 nM | 7 nM | 51.6% | 42.8%
